Assays:
[1] = dog, in vivo; cited from earlier work
[2] = assay type: physicochemical; conditions: pH 7.4
[3] = test system: hepatitis C; conditions: human, in vivo; cited from earlier work

Question: For `CNC[C@H](O)c1cccc(O)c1` [phenylephrine], which “increase in blood pressure” value [1] is on record?
Answer: 20%

Question: With `NC12CC3CC(CC(C3)C1)C2` [amantadine, 1-adamantanamine] as the molecule, how does the “amino group protonated at physiological pH” value [2] read?
Answer: over 90%

Question: What about the “biochemical and virological markers” value [3] of the same molecule?
Answer: improved
